Experimental data reported in patent US20110009381A1, “SOLUBILIZED THIAZOLOPYRIDINES” (Sirtis Pharmaceuticals, Inc., priority 2007, published 2011).

Target: T1, SIRT1 (Homo sapiens, UniProt Q96EB6)
T1 sequence (Q96EB6 1-747): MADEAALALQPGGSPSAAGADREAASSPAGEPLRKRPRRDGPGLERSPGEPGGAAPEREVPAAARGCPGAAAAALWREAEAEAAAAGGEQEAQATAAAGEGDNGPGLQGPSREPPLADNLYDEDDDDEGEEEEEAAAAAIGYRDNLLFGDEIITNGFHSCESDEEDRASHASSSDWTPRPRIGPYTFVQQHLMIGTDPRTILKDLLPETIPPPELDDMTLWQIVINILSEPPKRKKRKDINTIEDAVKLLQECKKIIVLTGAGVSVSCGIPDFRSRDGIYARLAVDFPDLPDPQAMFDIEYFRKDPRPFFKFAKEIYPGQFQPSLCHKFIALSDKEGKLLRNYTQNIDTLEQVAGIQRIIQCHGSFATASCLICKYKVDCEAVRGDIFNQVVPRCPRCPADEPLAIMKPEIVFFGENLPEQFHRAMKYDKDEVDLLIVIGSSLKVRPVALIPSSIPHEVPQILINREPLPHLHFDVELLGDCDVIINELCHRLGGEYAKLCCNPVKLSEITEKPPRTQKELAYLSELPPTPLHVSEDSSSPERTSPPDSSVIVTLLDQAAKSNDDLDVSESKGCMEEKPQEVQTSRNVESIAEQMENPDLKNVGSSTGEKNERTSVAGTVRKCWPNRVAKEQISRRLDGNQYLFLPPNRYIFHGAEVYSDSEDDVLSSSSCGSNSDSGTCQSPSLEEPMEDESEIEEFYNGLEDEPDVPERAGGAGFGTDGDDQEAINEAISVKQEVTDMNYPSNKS
Assay: Mass spectrometry based assay to identify modulators of SIRT1 activity (deacetylation of p53-based acetylated peptide substrate)
Assay type: biochemical
Settings: 10 nM SIRT1, 0.5 μM peptide substrate, 120 μM βNAD+, 25 minutes at 25° C.; for EC1.5: SIRT1 activation
Source text: A mass spectrometry based assay was used to identify modulators of SIRT1 activity. The mass spectrometry based assay utilizes a peptide having 20 amino acid residues as follows: Ac-EE-K(biotin)-GQSTSSHSK(Ac)NleSTEG-K(5TMR)-EE-NH2 (SEQ ID NO: 1) wherein K(Ac) is an acetylated lysine residue and Nle is a norleucine. The peptide is labeled with the fluorophore 5TMR (excitation 540 nm/emission 580 nm) at the C-terminus. The sequence of the peptide substrate is based on p53 with several modifications. In addition, the methionine residue naturally present in the sequence was replaced with the norleucine because the methionine may be susceptible to oxidation during synthesis and purification.
The mass spectrometry assay is conducted as follows: 0.5 μM peptide substrate and 120 μM βNAD^+ is incubated with 10 nM SIRT1 for 25 minutes at 25° C. in a reaction buffer (50 mM Tris-acetate pH 8, 137 mM NaCl, 2.7 mM KCl, 1 mM MgCl2, 5 mM DTT, 0.05% BSA). Test compounds may be added to the reaction as described above. The SirT1 gene is cloned into a T7-promoter containing vector and transformed into BL21(DE3). After the 25 minute incubation with SIRT1, 10 μL of 10% formic acid is added to stop the reaction. Reactions are sealed and frozen for later mass spec analysis. Determination of the mass of the substrate peptide allows for precise determination of the degree of acetylation (i.e. starting material) as compared to deacetylated peptide (product).
A control for inhibition of sirtuin activity is conducted by adding 1 μL of 500 mM nicotinamide as a negative control at the start of the reaction (e.g., permits determination of maximum sirtuin inhibition). A control for activation of sirtuin activity is conducted using 10 nM of sirtuin protein, with 1 μL of DMSO in place of compound, to determine the amount of deacetylation of the substrate at a given timepoint within the linear range of the assay. This timepoint is the same as that used for test compounds and, within the linear range, the endpoint represents a change in velocity.
For the above assay, SIRT1 protein was expressed and purified as follows. The SirT1 gene was cloned into a T7-promoter containing vector and transformed into BL21(DE3). The protein was expressed by induction with 1 mM IPTG as an N-terminal His-tag fusion protein at 18° C. overnight and harvested at 30,000×g. Cells were lysed with lysozyme in lysis buffer (50 mM Tris-HCl, 2 mM Tris[2-carboxyethyl]phosphine (TCEP), 10 μM ZnCl2, 200 mM NaCl) and further treated with sonication for 10 min for complete lysis. The protein was purified over a Ni-NTA column (Amersham) and fractions containing pure protein were pooled, concentrated and run over a sizing column (Sephadex S200 26/60 global). The peak containing soluble protein was collected and run on an Ion-exchange column (MonoQ). Gradient elution (200 mM-500 mM NaCl) yielded pure protein. This protein was concentrated and dialyzed against dialysis buffer (20 mM Tris-HCl, 2 mM TCEP) overnight. The protein was aliquoted and frozen at −80° C. until further use.
Sirtuin modulating compounds that activated SIRT1 were identified using the assay described above and are shown below in Table 1. The EC1-5 values for the activating compounds are represented by A′ (EC1.5<250 nM), A (EC1.5≧250 nM and ≦1 uM), B (EC1.5>1 and ≦10 uM), or C (EC1.5>10 uM). The percent maximum fold activation is represented by A (Fold activation≧300%), B (Fold Activation≧150% and <300%), or C (Fold Activation<150%).

| FOLD ACT. (percent maximum fold activation) | EC1.5 | SMILES |
| --- | --- | --- |
| A (Fold activation≧300%) | A′ (EC1.5<250 nM) | O=C(Nc1ccccc1-c1nc2cccnc2s1)c1cc(N2CCNCC2)nc(-c2ccccc2)n1 [Compound 1] |
| B (Fold Activation≧150% and <300%) | A′ (EC1.5<250 nM) | O=C(Nc1ccccc1-c1nc2cccnc2s1)c1cc(N2CCOCC2)nc(-c2ccccc2)n1 [Compound 2] |
| A (Fold activation≧300%) | A′ (EC1.5<250 nM) | COCCN1CCN(c2cc(C(=O)Nc3ccccc3-c3nc4cccnc4s3)nc(-c3ccccc3)n2)CC1 [Compound 3] |
| A (Fold activation≧300%) | A (EC1.5≧250 nM and ≦1 uM) | COCCN1CCN(c2cc(C(=O)Nc3ccccc3-c3nc4cccnc4s3)nc(Cl)n2)CC1 [Compound 4] |
| A (Fold activation≧300%) | A (EC1.5≧250 nM and ≦1 uM) | COCCN1CCN(c2cc(C(=O)Nc3ccccc3-c3nc4cccnc4s3)nc(OC)n2)CC1 [Compound 5] |
| A (Fold activation≧300%) | A (EC1.5≧250 nM and ≦1 uM) | O=C(Nc1ccccc1-c1nc2cccnc2s1)c1cc(OC2CNC2)cc(-c2ccccc2)n1 [Compound 6] |
| A (Fold activation≧300%) | A′ (EC1.5<250 nM) | O=C(Nc1ccccc1-c1nc2cccnc2s1)c1cc(OCCN2CCS(=O)(=O)CC2)cc(-c2ccccc2)n1 [Compound 7] |
| C (Fold Activation<150%) | C (EC1.5>10 uM) | O=C(Nc1ccccc1-c1nc2cccnc2s1)c1cc(Cl)nc(-c2ccccc2)n1 [Compound 8] |
| A (Fold activation≧300%) | A′ (EC1.5<250 nM) | CN(C)CCNc1cc(C(=O)Nc2ccccc2-c2nc3cccnc3s2)nc(-c2ccccc2)n1 [Compound 9] |
| A (Fold activation≧300%) | A (EC1.5≧250 nM and ≦1 uM) | O=C(Nc1ccccc1-c1nc2cccnc2s1)c1cc(CN2CCOCC2)nc(-c2ccccc2)n1 [Compound 10] |
| A (Fold activation≧300%) | B (EC1.5>1 and ≦10 uM) | O=C(Nc1ccccc1-c1nc2cccnc2s1)c1cc(CN2CCCC2)nc(-c2ccccc2)n1 [Compound 11] |
| A (Fold activation≧300%) | A′ (EC1.5<250 nM) | COCCN1CCN(CCOc2cc(C(=O)Nc3ccccc3-c3nc4cccnc4s3)nc(-c3ccccc3)c2)CC1 [Compound 12] |
| A (Fold activation≧300%) | A (EC1.5≧250 nM and ≦1 uM) | O=C(Nc1ccccc1-c1nc2cccnc2s1)c1cc(OCCN2CCOCC2)cc(-c2ccccc2)n1 [Compound 13] |
| A (Fold activation≧300%) | A′ (EC1.5<250 nM) | O=C(Nc1ccccc1-c1nc2cccnc2s1)c1cc(OCCN2CCNCC2)cc(-c2ccccc2)n1 [Compound 14] |
| A (Fold activation≧300%) | A (EC1.5≧250 nM and ≦1 uM) | COCCNc1cc(C(=O)Nc2ccccc2-c2nc3cccnc3s2)nc(-c2ccccc2)n1 [Compound 15] |
| B (Fold Activation≧150% and <300%) | A (EC1.5≧250 nM and ≦1 uM) | O=C(Nc1ccccc1-c1nc2cccnc2s1)c1cc(N2CCS(=O)(=O)CC2)nc(-c2ccccc2)n1 [Compound 16] |

| FOLD ACT. (percent maximum fold activation) | EC1.5 | SMILES |
| --- | --- | --- |
| A (Fold activation≧300%) | A (EC1.5≧250 nM and ≦1 uM) | COC(=O)CNc1cc(C(=O)Nc2ccccc2-c2nc3cccnc3s2)nc(-c2ccccc2)n1 [Compound 17] |
| C (Fold Activation<150%) | C (EC1.5>10 uM) | CCOc1cc(C(=O)Nc2ccccc2-c2nc3cccnc3s2)nc(-c2ccccc2)n1 [Compound 18] |
| C (Fold Activation<150%) | C (EC1.5>10 uM) | CC(C)CNc1cc(C(=O)Nc2ccccc2-c2nc3cccnc3s2)nc(-c2ccccc2)n1 [Compound 19] |
| C (Fold Activation<150%) | C (EC1.5>10 uM) | O=C(Nc1ccccc1-c1nc2cccnc2s1)c1cc(NC2CCCC2)nc(-c2ccccc2)n1 [Compound 20] |
| C (Fold Activation<150%) | C (EC1.5>10 uM) | O=C(Nc1ccccc1-c1nc2cccnc2s1)c1cc(N2CCCCC2)nc(-c2ccccc2)n1 [Compound 21] |
| A (Fold activation≧300%) | A (EC1.5≧250 nM and ≦1 uM) | O=C(Nc1ccccc1-c1nc2ccncc2s1)c1cc(N2CCOCC2)nc(-c2ccccc2)n1 [Compound 22] |
| A (Fold activation≧300%) | A′ (EC1.5<250 nM) | O=C(Nc1ccccc1-c1nc2ccncc2s1)c1cc(N2CCNCC2)nc(-c2ccccc2)n1 [Compound 23] |
| A (Fold activation≧300%) | A′ (EC1.5<250 nM) | CC(C)N1CCN(c2cc(C(=O)Nc3ccccc3-c3nc4ccncc4s3)nc(-c3ccccc3)n2)CC1 [Compound 24] |
| A (Fold activation≧300%) | A′ (EC1.5<250 nM) | COCCN1CCN(c2cc(C(=O)Nc3ccccc3-c3nc4ccncc4s3)nc(-c3ccccc3)n2)CC1 [Compound 25] |
| A (Fold activation≧300%) | B (EC1.5>1 and ≦10 uM) | CN(C)CCNc1cc(C(=O)Nc2ccccc2-c2nc3cccnc3s2)ncn1 [Compound 26] |
| A (Fold activation≧300%) | A (EC1.5≧250 nM and ≦1 uM) | COCCNc1cc(C(=O)Nc2ccccc2-c2nc3ccncc3s2)nc(-c2ccccc2)n1 [Compound 27] |
| A (Fold activation≧300%) | B (EC1.5>1 and ≦10 uM) | Cc1nc(NCCN(C)C)cc(C(=O)Nc2ccccc2-c2nc3cccnc3s2)n1 [Compound 28] |
| A (Fold activation≧300%) | A′ (EC1.5<250 nM) | COCCN(C)c1cc(C(=O)Nc2ccccc2-c2nc3ccncc3s2)nc(-c2ccccc2)n1 [Compound 29] |
| A (Fold activation≧300%) | A (EC1.5≧250 nM and ≦1 uM) | O=C(Nc1ccccc1-c1nc2ccncc2s1)c1cc(NCCN2CCOCC2)nc(-c2ccccc2)n1 [Compound 30] |
| B (Fold Activation≧150% and <300%) | A (EC1.5≧250 nM and ≦1 uM) | O=C(Nc1ccccc1-c1nc2ccncc2s1)c1cc(NCc2cccnc2)nc(-c2ccccc2)n1 [Compound 31] |
